# Test results published in patent publication US20100324102A1, “N-(3-PYRIDIN-2-YLPROPYL) BENZAMIDE DERIVATIVES AS FUNGICIDES” (BAYER CROPSCIENCE AG, priority 2006, published 2010).
# What was measured:
# Alternaria brassicae = assay: In vivo test on Alternaria brassicae (leaf spot of crucifers); settings: radish plants (Pernot variety), preventive spray at 330 ppm, contamination after 24 hours, grading 6 to 7 days after contamination vs control plants
# Experimental: (§1) The active ingredients tested are prepared by potter homogenisation in a mixture of acetone/tween/water. This suspension is then diluted with water to obtain the desired active material concentration.
# Radish plants (Pernot variety), sown on a 50/50 peat soil-pozzolana substrate in starter cups and grown at 18-20° C., are treated at the cotyledon stage by spraying with the active ingredient prepared as described above.
# Plants, used as controls, are treated with the mixture of acetone/tween/water not containing the active material.
# After 24 hours, the plants are contaminated by spraying them with an aqueous suspension of Alternaria brassicae spores (40,000 spores per cm^3). The spores are collected from a 12 to 13 days-old culture.
# The contaminated radish plants are incubated for 6-7 days at about 18° C., under a humid atmosphere.
# Grading is carried out 6 to 7 days after the contamination, in comparison with the control plants.
# Pyrenophora teres = assay: In vivo test on Pyrenophora teres (barley net blotch); settings: barley plants (Express variety), preventive spray at 330 ppm, contamination after 24 hours, grading 12 days after contamination vs control plants
# Experimental: as §1
# Barley plants (Express variety), sown on a 50/50 peat soil-pozzolana substrate in starter cups and grown at 12° C., are treated at the 1-leaf stage (10 cm tall) by spraying with the active ingredient prepared as described above. Plants, used as controls, are treated with the mixture of acetone/tween/water not containing the active material.
# After 24 hours, the plants are contaminated by spraying them with an aqueous suspension of Pyrenophora teres spores (12,000 spores per ml). The spores are collected from a 12-day-old culture. The contaminated barley plants are incubated for 24 hours at about 20° C. and at 100% relative humidity, and then for 12 days at 80% relative humidity.
# Grading is carried out 12 days after the contamination, in comparison with the control plants.
smiles,measurement,setting,value
"O=C(NCCCc1ncc(C(F)(F)F)cc1Cl)c1ccccc1C(F)(F)F [Compound 1, N-{3-[3-chloro-5-(trifluoromethyl)pyridin-2-yl]propyl}-2-(trifluoromethyl)benzamide]",protection,Alternaria brassicae,at least 70%
same,protection,Pyrenophora teres,at least 70%
